Molecules are shown by their SMILES. Like-named read-outs stand apart in the source and are kept apart here.

Data set [1] is described as follows: PAMPA permeability. As to conditions: PAMPA. On the technique in general: In PAMPA a lipid-coated filter parts donor from acceptor wells.
For data set [2], the target named is recombinant mouse GALK1 (Mus musculus, UniProt Q9R0N0). Nature of the data set: mGALK1 biochemical activity assay (Kinase-Glo Plus, ATP depletion). The method in brief: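 Recombinant GALK1 (5 nM) with 100 μM galactose; GALK1 turnover read as ATP depletion by Kinase-Glo Plus luminescence. Reaction ran 1 h at room temperature before detection reagent was added.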
A general note: Kinase-Glo measures the ATP left after a reaction by luminescence.

The nature of data set [3]: rat microsomal stability (RLM). The settings on record: for half-life: rat, rat liver microsomes. For orientation: Liver microsomes are vesicles of endoplasmic reticulum, rich in cytochrome P450 enzymes.
Data set [4] deals with T1, hGALK1m (Homo sapiens, UniProt P51570, E253A/K252A).
T1 construct: made in house; host or cells: E. coli HMS174
Nature of the data set: in vitro hGALK1 activity assay of the structure-based optimisation (Example 12, Tables 17-20). It is filed as biochemical. How it is done: In vitro hGALK1 activity assays were performed as previously described. Liu et al., Bioorg. Med. Chem. Lett. 25(3): 721-727 (2015), which is incorporated by reference herein for the specific teachings thereof. The biochemical assay was performed by coupling the activity of recombinant human or mouse GALK1 to the Kinase-Glo Plus luminescent ATP detection kit, using ATP depletion as a measure of GALK1 turnover. Specifically, three μL/well of ATP substrate solution (35 μM ATP) in assay buffer (20 mM HEPES pH 8.0, 5 mM MgCl2, 60 mM NaCl, 1 mM DTT, 0.01% BSA final concentration) was dispensed into 1536-well assay plates (Greiner, white solid-bottom medium-binding plates). Aliquots of compound (23 nL solubilized in DMSO) were transferred to the assay plates using a Kalypsys 1536-well pintool such that 11 concentrations with 1/3 dilutions ranging from 57.4 μM-0.97 nM are tested. One μL/well of GALK-galactose solution (5 nM GALK1, 100 μM galactose) in assay buffer was then added, yielding a final reaction volume of 4 μL/well. Following a 1-hour room temperature incubation, 4 μL of Kinase-Glo Plus detection reagent was added to provide an ATP-dependent luminescent readout (final assay volume: 8 μL/well). Luminescence was detected using a ViewLux plate reader (PerkinElmer) after a 10-minute incubation, using a 1 second exposure time and 2× binning.
The in vitro hGALK1 activity assay was performed as previously described. Liu et al., Bioorg. Med. Chem. Lett. 25(3): 721-727 (2015). For the measurement of cellular Gal-1P reduction, compounds at different concentrations were added to cultured patient fibroblast at 80% confluency. After incubating the compounds for 16 hours, 10 mM galactose was added to the culture. After another 4 hours, cells were washed with cold PBS buffer 3× and harvested for gal-1P measurement, according to the previously published method. Liu et al., Bioorg. Med. Chem. Lett. 25(3): 721-727 (2015).

Data set [5] in a line: aqueous kinetic solubility.
Data set [6] addresses recombinant human GALK1 (Homo sapiens, UniProt P51570). The data set is described as follows: hGALK1 biochemical activity assay (Kinase-Glo Plus, ATP depletion). The essentials:
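Turnover is measured as ATP depletion by Kinase-Glo Plus luminescence after a 1 h room-temperature reaction. Compounds span 11 concentrations, 57.4 μM–0.97 nM, in final 20 mM HEPES pH 8.0 with 5 mM MgCl2. The substrate solution held 35 μM ATP; the added solution held 5 nM human or mouse GALK1 and 100 μM galactose.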

Where [7] appears, read: ADME P: PAMPA permeability (class), Tables 17-19, class probably colour-coded, colour lost.
The mark [8] stands for this setting: Tables 2-15, 35 μM ATP, 100 μM galactose, 1 h, bracketed figure after some values is undefined and not reported, read-out: mGALK IC50.
The mark [9] stands for this setting: recombinant mouse GALK1, Kinase-Glo Plus ATP depletion, read-out: mGALK.
The mark [10] stands for this setting: Tables 18-19, read-out: Max Response (%).
[11] abbreviates: Tables 18-19 and text of Example 12.
Setting [12] is: Tables 2-15, 35 μM ATP, 100 μM galactose, 1 h, bracketed figure after some values (e.g. −1.2) is undefined and not reported, read-out: hGALK IC50.
Setting [13] is: recombinant human GALK1, Kinase-Glo Plus ATP depletion, read-out: hGALK.
Setting [14] is: Tables 18-20 and text of Example 12.
Setting [15] is: 1 h, Table 17, read-out: Efficacy.
The mark [16] stands for this setting: Table 17, amide group optimization, no unit in table.

Sequence of recombinant mouse GALK1 (Q9R0N0 whole entry): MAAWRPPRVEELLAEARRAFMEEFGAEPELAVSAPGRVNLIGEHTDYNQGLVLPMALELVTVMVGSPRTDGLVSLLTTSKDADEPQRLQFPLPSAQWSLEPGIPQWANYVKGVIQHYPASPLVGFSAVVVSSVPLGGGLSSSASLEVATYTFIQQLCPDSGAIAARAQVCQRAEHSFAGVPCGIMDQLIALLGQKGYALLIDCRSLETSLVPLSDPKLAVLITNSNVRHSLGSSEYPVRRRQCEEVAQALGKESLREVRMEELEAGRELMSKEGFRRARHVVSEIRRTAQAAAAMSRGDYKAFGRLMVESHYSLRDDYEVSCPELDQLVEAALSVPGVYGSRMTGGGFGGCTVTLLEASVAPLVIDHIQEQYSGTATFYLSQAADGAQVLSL
T1 sequence (P51570 whole entry K252A/E253A): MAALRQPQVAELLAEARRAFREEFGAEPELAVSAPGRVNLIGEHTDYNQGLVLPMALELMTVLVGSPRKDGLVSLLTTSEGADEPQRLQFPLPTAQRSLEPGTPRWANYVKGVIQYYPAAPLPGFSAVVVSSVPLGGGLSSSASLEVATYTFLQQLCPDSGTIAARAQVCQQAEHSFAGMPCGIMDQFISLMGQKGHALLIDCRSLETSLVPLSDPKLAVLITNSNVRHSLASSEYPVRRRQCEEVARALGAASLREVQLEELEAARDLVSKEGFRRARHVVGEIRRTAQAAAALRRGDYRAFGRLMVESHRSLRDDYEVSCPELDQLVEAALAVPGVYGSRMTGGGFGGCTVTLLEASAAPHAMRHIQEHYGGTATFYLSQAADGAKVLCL
Sequence of recombinant human GALK1 (P51570 whole entry): as the sequence (P51570 whole entry K252A/E253A) above, with A252K, A253E counted along it

Regarding `CC1=C(C(=O)Nc2cc(C(=O)O)ccn2)C(c2cccc(Cl)c2Cl)N=C(Nc2nc3ccc(F)cc3o2)N1` (stereo not shown) [Compound 49, 2-(4-(2,3-dichlorophenyl)-2-((6-fluorobenzo[d]oxazol-2-yl)amino)-6-methyl-1,4-dihydropyrimidine-5-carboxamido)isonicotinic acid], the Papp – broadly, a coefficient for how fast a substance crosses the barrier – in data set [1] (setting [7]) was under 10 ×10⁻⁶ cm/s. Besides, the IC50 in data set [2] (setting [8]) is 21.7 µM; in data set [2] (setting [9]) it was 21.7 µM; in data set [4] (setting [11]), 3.6 µM; in data set [6] (setting [12]), 8.63 µM; in data set [6] (setting [13]) it was 8.63 µM. Besides, the “Metab. Stabil. (m)” value in data set [3] (microsomal half-life) is over 30 m. Further, in data set [3], the half-life (as a rule, the time in which the quantity being followed falls by half) was under 10 min. For the same molecule, the “change of potency versus parent compound (in words)” value (from here on “change”) in data set [4] is “compromised the potency”. For the same molecule, the Emax in data set [4] (setting [10]) was 100%. Besides, in data set [5], the “Sol.” value came to 55.5 µg/mL.
In data set [1] (setting [7]), `CC1=C(C(=O)Nc2cc(C(=O)O)ccn2)C(c2cccc(C(F)(F)F)c2Cl)N=C(Nc2nc3ccc(F)cc3o2)N1` (stereo not shown) [Compound 51, 2-(4-(2-chloro-3-(trifluoromethyl)phenyl)-2-((6-fluorobenzo[d]oxazol-2-yl)amino)-6-methyl-1,4-dihydropyrimidine-5-carboxamido)isonicotinic acid] came in with a Papp of under 10 ×10⁻⁶ cm/s. Further, the IC50 in data set [2] (setting [8]) was determined as 27.3 µM; in data set [2] (setting [9]), 27.3 µM; in data set [4] (setting [11]), 2.4 µM; in data set [6] (setting [12]), 19.3 µM; in data set [6] (setting [13]) it was 19.3 µM. Moreover, the “Metab. Stabil. (m)” value in data set [3] (microsomal half-life) was over 30 m. In addition, in data set [3], the half-life was under 10 min. Further, the “change” value in data set [4] is listed as “compromised the potency”. The Emax in data set [4] (setting [10]) stood at 97%. The “Sol.” value in data set [5] amounted to 70.1 µg/mL.
Consider `CC1=C(C(=O)NCc2cnn(C)c2)C(c2ccc(C)cc2Cl)N=C(Nc2nc3cccc(N)c3o2)N1` (racemic) [Compound 83, 2-((7-aminobenzo[d]oxazol-2-yl)amino)-4-(2-chloro-4-methylphenyl)-6-methyl-N-((1-methyl-1H-pyrazol-4-yl)methyl)-1,4-dihydropyrimidine-5-carboxamide], for which, in data set [1] (Perm. (1 × 10^−6 cm/sec)), the Papp came out at 25.3 ×10⁻⁶ cm/s. In addition, the IC50 in data set [2] (setting [8]) was determined as 2.17 µM; in data set [2] (setting [9]), 2.17 µM; in data set [4] (setting [14]), 0.047 µM; in data set [6] (setting [12]), 0.22 µM; in data set [6] (setting [13]), 0.22 µM. The “Metab. Stabil. (m)” value in data set [3] (microsomal half-life) worked out at 14.13 m. In data set [5], the “Sol.” value amounted to 4.47 µg/mL.
For the molecule `CC1=C(C(=O)Nc2nncs2)C(c2ccccc2Cl)N=C(Nc2nc3ccccc3o2)N1` (stereo not shown) [Compound 205, 2-(benzo[d]oxazol-2-ylamino)-4-(2-chlorophenyl)-6-methyl-N-(1,3,4-thiadiazol-2-yl)-1,4-dihydropyrimidine-5-carboxamide], in data set [1], the “Perm. (1 × 10^−6 cm/sec)” value is listed as 207.3 1 × 10^−6 cm/sec. In data set [1] (setting [7]), this molecule returned a Papp of under 10 ×10⁻⁶ cm/s. Further, the IC50 in data set [2] (setting [8]) is 7.69 µM; in data set [2] (setting [9]) it was 7.69 µM; in data set [4] (setting [16]), 3.4 µM; in data set [6] (setting [12]) it was 3.85 µM; in data set [6] (setting [13]), 3.85 µM. In data set [3] (microsomal stability half-life), the “Metab. Stabil. (m)” value is reported as over 30 m. This molecule had a half-life in data set [3] of under 10 min. Besides, in data set [4] (setting [15]), the Emax came to 96%. Moreover, the “Sol.” value in data set [5] (aqueous kinetic solubility) was under 1 µg/mL.
`CC1=C(C(=O)NCc2cn(C)cn2)C(c2ccccc2Cl)N=C(Nc2nc3ccccc3o2)N1` (racemic) [Compound 233, 2-(benzo[d]oxazol-2-ylamino)-4-(2-chlorophenyl)-6-methyl-N-((1-methyl-1H-imidazol-4-yl)methyl)-1,4-dihydropyrimidine-5-carboxamide]: the Papp is under 10 ×10⁻⁶ cm/s in data set [1] (setting [7]) and 868 ×10⁻⁶ cm/s in data set [1] (Perm. (1 × 10^−6 cm/sec)). Besides, the IC50 in data set [2] (setting [8]) worked out at 7.69 µM; in data set [2] (setting [9]), 7.69 µM; in data set [4] (setting [11]), 0.77 µM; in data set [6] (setting [12]), 1.09 µM; in data set [6] (setting [13]) it was 1.09 µM. The “Metab. Stabil. (m)” value in data set [3] (microsomal stability half-life) was 14.56 m. For the same molecule, in data set [3], the half-life was under 10 min. In data set [4] (setting [15]), the Emax came out at 90%. Further, the “Sol.” value in data set [5] (aqueous kinetic solubility) was 26.6 µg/mL.
Turning to `CC1=C(C(=O)Nc2cc(C(=O)O)ccn2)C(c2ccccc2Cl)N=C(Nc2nc3c(F)cccc3o2)N1` (stereo not shown) [Compound 8, 2-(4-(2-chlorophenyl)-6-methyl-2-((4-fluorobenzo[d]oxazol-2-yl)amino)-1,4-dihydropyrimidine-5-carboxamido)isonicotinic acid], the IC50 in data set [2] (setting [8]) is 21.7 µM; in data set [2] (setting [9]), 21.7 µM; in data set [4] (setting [11]), 3.3 µM; in data set [6] (setting [13]) it was 3.85 µM. The Emax in data set [4] (setting [10]) worked out at 100%.
In data set [4] (setting [14]), `CC1=C(C(=O)NCc2cnn(C)c2)[C@@H](c2ccc(C)cc2Cl)N=C(Nc2nc3cccc(N)c3o2)N1` [S-enantiomer of Compound 83] displayed an IC50 of 0.029 µM.
Turning to `CC1=C(C(=O)Nc2ncc(C(=O)O)s2)C(c2ccccc2Cl)N=C(Nc2nc3ccccc3o2)N1` (stereo not shown) [Compound 199, 2-(2-(benzo[d]oxazol-2-ylamino)-4-(2-chlorophenyl)-6-methyl-1,4-dihydropyrimidine-5-carboxamido)thiazole-5-carboxylic acid], in data set [1], the “Perm. (1 × 10^−6 cm/sec)” value was <1 1 × 10^−6 cm/sec. The molecule also had a Papp in data set [1] (setting [7]) of under 10 ×10⁻⁶ cm/s. For the same molecule, the “Metab. Stabil. (m)” value in data set [3] (microsomal stability half-life) was over 30 m. In addition, the half-life in data set [3] was under 10 min. The Emax in data set [4] (setting [15]) was 91%. Moreover, the IC50 amounted to 1.7 µM in data set [4] (setting [16]), 1.72 µM in data set [6] (setting [12]) and 1.72 µM in data set [6] (setting [13]). Further, the “Sol.” value in data set [5] (aqueous kinetic solubility) is over 75 µg/mL.
As for `CC1=C(C(=O)Nc2cc(C(=O)O)ccn2)C(c2cccc(F)c2Cl)N=C(Nc2nc3ccc(F)cc3o2)N1` (stereo not shown) [Compound 48, 2-(4-(2-chloro-3-fluorophenyl)-2-((6-fluorobenzo[d]oxazol-2-yl)amino)-6-methyl-1,4-dihydropyrimidine-5-carboxamido)isonicotinic acid], the Papp in data set [1] (setting [7]) is under 10 ×10⁻⁶ cm/s. Moreover, the IC50 in data set [2] (setting [8]) was found to be 15.3 µM; in data set [2] (setting [9]), 15.3 µM; in data set [4] (setting [11]) it was 1.8 µM; in data set [6] (setting [12]), 4.85 µM; in data set [6] (setting [13]), 4.85 µM. For the same molecule, the half-life in data set [3] was under 10 min. Also, the “change” value in data set [4] was “compromised the potency”. In addition, in data set [4] (setting [10]), the Emax worked out at 100%.
Molecule `CC1=C(C(=O)Nc2cc(C(=O)O)ccn2)[C@@H](c2ccccc2Cl)N=C(Nc2nc3ccccc3o2)N1` [S-enantiomer of Compound 194] had an IC50 in data set [4] (setting [14]) of 0.3 µM.
Molecule `CC1=C(C(=O)Nc2cc(C(=O)O)ccn2)C(c2ccccc2Cl)N=C(Nc2nc3cc(F)ccc3o2)N1` (stereo not shown) [Compound 13, 2-(4-(2-chlorophenyl)-2-((5-fluorobenzo[d]oxazol-2-yl)amino)-6-methyl-1,4-dihydropyrimidine-5-carboxamido)isonicotinic acid] displayed a Papp in data set [1] (setting [7]) of under 10 ×10⁻⁶ cm/s. For the same molecule, the IC50 in data set [2] (setting [8]) was found to be 17.2 µM; in data set [2] (setting [9]), 17.2 µM; in data set [4] (setting [11]), 3.6 µM; in data set [6] (setting [12]) it was 3.43 µM. This molecule registered a half-life in data set [3] of under 10 min. In data set [4] (setting [10]), the Emax was 100%.
`CC1=C(C(=O)Nc2cc(C(=O)O)ccn2)C(c2ccccc2Cl)N=C(Nc2nc3ccccc3o2)N1` (stereo not drawn) [R-enantiomer of Compound 194] came in with an IC50 in data set [4] (setting [11]) of 15 µM.

These data come from patent publication US20230158025A1 (UNIVERSITY OF UTAH RESEARCH FOUNDATION, priority 2020, published 2023).
